# Assay results from patent publication US9273043B2, “TRPV1 antagonists including dihydroxy substituent and uses thereof” (Purdue Pharma L.P., priority 2011, dated 2016).
# Marks after values point to notes of the source that are not given here.
# Tested on: FCA-induced inflammation of the rat hind paw
# Experiment: Freund's complete adjuvant (FCA) model of inflammatory pain, paw withdrawal threshold
# Assay type: in vivo
# Settings: for % Reversal [mean]: rat FCA
# Experimental: Test Animals: Each experiment uses rats weighing between 200-260 g at the start of the experiment. The rats are group-housed and have free access to food and water at all times, except prior to oral administration of a Compound of Formula (I) when food is removed for 16 hours before dosing. A control group acts as a comparison to rats treated with a Compound of Formula (I). The control group is administered the vehicle for the Compound of Formula (I). The volume of vehicle administered to the control group is the same as the volume of carrier and Compound of Formula (I) administered to the test group.
# Inflammatory Pain: To assess the actions of a Compound of Formula (I) for the treatment or prevention of inflammatory pain, the Freund's complete adjuvant (“FCA”) model of inflammatory pain was used. FCA-induced inflammation of the rat hind paw is associated with the development of persistent inflammatory mechanical hyperalgesia and provides reliable prediction of the anti-hyperalgesic action of clinically useful analgesic drugs (Bartho et al., “Involvement of capsaicin-sensitive neurons in hyperalgesia and enhanced opioid antinociception in inflammation,” Naunyn-Schmiedeberg's Archives of Pharmacol. 342:666-670 (1990)). The right hind paw of each male, 6-week old Jcl:SD rat was administered a 50 μL intraplantar injection of 50% FCA (Sigma-Aldrich). 24 hour post-injection, the animal was assessed for response to noxious mechanical stimuli by determining the PWT, as described below. Rats were then administered a single injection of 0.1, 0.3, 1, 3, or 10 mg/kg of either the product prepared with Compound A155(a) and fumaric acid as described in Example 10, 20 mg/kg of an ibuprofen control (EMD Millipore Chemicals, Inc.), or vehicle as a control (0.5% weight/volume methylcellulose (400cP, Wako Pure Chemical Industries, Ltd., Osaka, Japan)/aqueous solution). […] Responses to noxious mechanical stimuli were then determined 1, 3, 5, and 7 hours post-administration. Percentage reversal of hyperalgesia for each animal was defined as: […]
# With the exception of the controls (i.e., ibuprofen, vehicle) where the student's t-test was used, Dunnett's test was conducted for the % reversal. In either instance, values with p<0.05 were considered to be statistically significant. The % reversal results for administration of the product prepared with Compound A155(a) and fumaric acid as described in Example 10 and the respective controls are presented in Table 7.
# Response to Mechanical Stimuli as an Assessment of Mechanical Hyperalgesia: The paw pressure assay was used to assess mechanical hyperalgesia. For this assay, hind paw withdrawal thresholds (PWT) to a noxious mechanical stimulus were determined using an analgesymeter (Model 37215, commercially available from Ugo Basile of Italy) as described in Stein, “Unilateral Inflammation of the Hindpaw in Rats as a Model of Prolonged Noxious Stimulation: Alterations in Behavior and Nociceptive Thresholds,” Pharmacol. Biochem. and Behavior 31:451-455 (1988). The maximum weight that could be applied to the hind paw was set at 250 g and the end point was taken as complete withdrawal of the paw. PWT was determined once for each rat at each time point and either only the affected (ipsilateral) paw was tested, or both the ipsilateral and contralateral (non-injured) paw were tested.
smiles,measurement,setting,value
CC1CN(c2ncc(C(O)CO)cc2F)CCN1C(=O)Nc1nc2cc(F)ccc2s1.O=C(O)C=CC(=O)O (stereo not drawn),minimal effective dose,rat FCA model,0.1 mg/kg
same,% Reversal [mean],"0.1 mg/kg, 1 h after administration",31.9** %
same,% Reversal [mean],"0.1 mg/kg, 1 h after administration, listed as product prepared with Compound A155(a) and fumaric acid",31.9%
same,% Reversal [mean],"0.1 mg/kg, 3 h after administration",37.8** %
same,% Reversal [mean],"0.1 mg/kg, 3 h after administration, listed as product prepared with Compound A155(a) and fumaric acid",37.8%
same,% Reversal [mean],"0.1 mg/kg, 5 h after administration",31.3** %
same,% Reversal [mean],"0.1 mg/kg, 5 h after administration, listed as product prepared with Compound A155(a) and fumaric acid",31.3%
same,% Reversal [mean],"0.1 mg/kg, 7 h after administration",23.6** %
same,% Reversal [mean],"0.1 mg/kg, 7 h after administration, listed as product prepared with Compound A155(a) and fumaric acid",23.6%
same,% Reversal [mean],"0.3 mg/kg, 1 h after administration",65.0** %
same,% Reversal [mean],"0.3 mg/kg, 1 h after administration, listed as product prepared with Compound A155(a) and fumaric acid",65.0%
same,% Reversal [mean],"0.3 mg/kg, 3 h after administration",60.2** %
same,% Reversal [mean],"0.3 mg/kg, 3 h after administration, listed as product prepared with Compound A155(a) and fumaric acid",60.2%
same,% Reversal [mean],"0.3 mg/kg, 5 h after administration",54.1** %
same,% Reversal [mean],"0.3 mg/kg, 5 h after administration, listed as product prepared with Compound A155(a) and fumaric acid",54.1%
same,% Reversal [mean],"0.3 mg/kg, 7 h after administration",39.4** %
same,% Reversal [mean],"0.3 mg/kg, 7 h after administration, listed as product prepared with Compound A155(a) and fumaric acid",39.4%
same,% Reversal [mean],"1 mg/kg, 1 h after administration",79.4** %
same,% Reversal [mean],"1 mg/kg, 3 h after administration",84.1** %
same,% Reversal [mean],"1 mg/kg, 5 h after administration",78.2** %
same,% Reversal [mean],"1 mg/kg, 7 h after administration",70.5** %
same,% Reversal [mean],"3 mg/kg, 1 h after administration",80.3** %
same,% Reversal [mean],"3 mg/kg, 1 h after administration, listed as product prepared with Compound A155(a) and fumaric acid",80.3%
same,% Reversal [mean],"3 mg/kg, 3 h after administration",87.9** %
same,% Reversal [mean],"3 mg/kg, 3 h after administration, listed as product prepared with Compound A155(a) and fumaric acid",87.9%
same,% Reversal [mean],"3 mg/kg, 5 h after administration",86.6** %
same,% Reversal [mean],"3 mg/kg, 5 h after administration, listed as product prepared with Compound A155(a) and fumaric acid",86.6%
same,% Reversal [mean],"3 mg/kg, 7 h after administration",97.3** %
same,% Reversal [mean],"3 mg/kg, 7 h after administration, listed as product prepared with Compound A155(a) and fumaric acid",97.3%
same,% Reversal [mean],"10 mg/kg, 1 h after administration",102.5** %
same,% Reversal [mean],"10 mg/kg, 3 h after administration",94.1** %
same,% Reversal [mean],"10 mg/kg, 5 h after administration",97.3** %
same,% Reversal [mean],"10 mg/kg, 7 h after administration",93.1** %
